Measurements taken from patent US10251889B2, “Substituted pyrazolo[1,5-a]pyrimidine compounds as Trk kinase inhibitors” (Array BioPharma, Inc., priority 2009, dated 2019).
Where a name gives a salt, the structure may show the parent alone.

Target: Jak2 (human Jak2 kinase domain, amino acids 808-1132) (Homo sapiens (Human), UniProt O60674)
Experiment: Jak2 inhibition assay (Omnia kinase assay)
Format: biochemical
Conditions: read-out: Jak2 Enzyme (% inhibition at 1000 nM)

Jak2 (human Jak2 kinase domain, amino acids 808-1132), sequence (O60674 808-1132): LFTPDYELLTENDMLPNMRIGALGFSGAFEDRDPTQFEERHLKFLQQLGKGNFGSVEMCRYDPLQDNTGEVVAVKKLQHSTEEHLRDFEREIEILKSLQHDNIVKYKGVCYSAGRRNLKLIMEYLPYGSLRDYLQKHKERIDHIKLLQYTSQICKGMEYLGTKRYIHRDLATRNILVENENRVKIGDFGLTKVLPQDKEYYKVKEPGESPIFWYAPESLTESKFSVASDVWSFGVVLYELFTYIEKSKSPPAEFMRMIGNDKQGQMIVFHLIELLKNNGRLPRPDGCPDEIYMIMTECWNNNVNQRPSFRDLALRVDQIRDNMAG

Structure (SMILES) | inhibition at 1 µM
O=C(N[C@@H]1CCNC[C@@H]1F)c1cnn2ccc(N3CCC[C@@H]3c3cc(F)ccc3F)nc12 [Example 61, 5-((R)-2-(2,5-difluorophenyl)pyrrolidin-1-yl)-N-((3S,4R)-3-fluoropiperidin-4-yl)pyrazolo[1,5-a]pyrimidine-3-carboxamide Hydrochloride] | 54.4%

Same assay, conditions: read-out: Jak2 Enzyme (% inhibition at 1000 nM), Table 1; 1000 nM test compound

Structure (SMILES) | inhibition at 1 µM
COc1ncc(F)cc1[C@H]1CCCN1c1ccn2ncc(C(=O)NC3CC3)c2n1 [Example 79, (R)—N-cyclopropyl-5-(2-(5-fluoro-2-methoxypyridin-3-yl)pyrrolidin-1-yl)pyrazolo[1,5-a]pyrimidine-3-carboxamide] | 54.8%
CC(C)(O)CNC(=O)c1cnn2ccc(N3CCC[C@@H]3c3cncc(F)c3)nc12 [Example 111, (R)-5-(2-(5-fluoropyridin-3-yl)pyrrolidin-1-yl)-N-(2-hydroxy-2-methylpropyl)pyrazolo[1,5-a]pyrimidine-3-carboxamide] | 0.1%
O=C(NC1(CO)CC1)c1cnn2ccc(N3CCC[C@@H]3c3cncc(F)c3)nc12 [Example 107, (R)-5-(2-(5-fluoropyridin-3-yl)pyrrolidin-1-yl)-N-(1-(hydroxymethyl)cyclopropyl)pyrazolo [1,5-a]pyrimidine-3-carboxamide] | 7.1%
O=C(NC[C@H](O)CO)c1cnn2ccc(N3CCC[C@@H]3c3cc(F)ccc3C(F)(F)F)nc12 [Example 62, N—((S)-2,3-dihydroxypropyl)-5-((R)-2-(5-fluoro-2-(trifluoromethyl)phenyl)pyrrolidin-1-yl)pyrazolo[1,5-a]pyrimidine-3-carboxamide] | 35.2%
COc1ccc(F)cc1[C@H]1CCCN1c1ccn2ncc(C(=O)NC3CC3)c2n1 [Example 48, (R)—N-cyclopropyl-5-(2-(5-fluoro-2-methoxyphenyl)pyrrolidin-1-yl)pyrazolo[1,5-a]pyrimidine-3-carboxamide] | 72.7%
O=C(NCCN1CCOCC1)c1cnn2ccc(N3CCC[C@@H]3c3cc(F)ccc3F)nc12 [Example 4, (R)-5-(2-(2,5-difluorophenyl)pyrrolidin-1-yl)-N-(2-morpholinoethyl)pyrazolo[1,5-a]pyrimidine-3-carboxamide] | 18.8%
CC1(O)CCC(NC(=O)c2cnn3ccc(N4CCC[C@@H]4c4cc(F)ccc4F)nc23)CC1 (single isomer, unassigned; diastereomer 1) [Example 50] | 73.7%
NC(=O)c1cnn2ccc(N3CCC[C@@H]3c3cc(F)ccc3C(F)(F)F)nc12 [Example 64, (R)-5-(2-(5-fluoro-2-(trifluoromethyl)phenyl)pyrrolidin-1-yl)pyrazolo[1,5-a]pyrimidine-3-carboxamide] | 60.3%
COCCOc1ccc(F)cc1[C@H]1CCCN1c1ccn2ncc(C(=O)NC3CC3)c2n1 [Example 90, (R)—N-cyclopropyl-5-(2-(5-fluoro-2-(2-methoxyethoxy)phenyl)pyrrolidin-1-yl)pyrazolo[1,5-a]pyrimidine-3-carboxamide] | 67.3%
O=C(O)C1CCN(C(=O)c2cnn3ccc(N4CCC[C@@H]4c4cc(F)ccc4F)nc23)CC1 [Example 11, (R)-1-(5-(2-(2,5-difluorophenyl)pyrrolidin-1-yl)pyrazolo[1,5-a]pyrimidine-3-carbonyl)piperidine-4-carboxylic Acid] | 10.1%
CC(C)(C#N)NC(=O)c1cnn2ccc(N3CCC[C@@H]3c3cncc(F)c3)nc12 [Example 69, (R)—N-(2-cyanopropan-2-yl)-5-(2-(5-fluoropyridin-3-yl)pyrrolidin-1-yl)pyrazolo[1,5-a]pyrimidine-3-carboxamide] | 6%
CC(C)(CF)NC(=O)c1cnn2ccc(N3CCC[C@@H]3c3cc(F)ccc3F)nc12 [Example 40, (R)-5-(2-(2,5-difluorophenyl)pyrrolidin-1-yl)-N-(1-fluoro-2-methylpropan-2-yl)pyrazolo[1,5-a]pyrimidine-3-carboxamide] | 41.4%
Cn1cc(CNC(=O)c2cnn3ccc(N4CCC[C@@H]4c4cc(F)ccc4F)nc23)cn1 [Example 22, (R)-5-(2-(2,5-difluorophenyl)pyrrolidin-1-yl)-N-((1-methyl-1H-pyrazol-4-yl)methyl)pyrazolo[1,5-a]pyrimidine-3-carboxamide] | 9.8%
O=C(NC1CCOCC1)c1cnn2ccc(N3CCC[C@@H]3c3cc(F)ccc3F)nc12 [Example 20, (R)-5-(2-(2,5-difluorophenyl)pyrrolidin-1-yl)-N-(tetrahydro-2H-pyran-4-yl)pyrazolo[1,5-a]pyrimidine-3-carboxamide] | 78.9%
O=C(N[C@H]1CC[C@H](O)CC1)c1cnn2ccc(N3CCC[C@@H]3c3cc(F)ccc3F)nc12 [Example 7, 5-((R)-2-(2,5-difluorophenyl)pyrrolidin-1-yl)-N-((trans)-4-hydroxycyclohexyl)pyrazolo[1,5-a]pyrimidine-3-carboxamide] | 90%
O=C(c1cnn2ccc(N3CCC[C@@H]3c3cc(F)ccc3F)nc12)N1CC[C@H](O)C1 [Example 18, (5-((R)-2-(2,5-difluorophenyl)pyrrolidin-1-yl)pyrazolo[1,5-a]pyrimidin-3-yl)((S)-3-hydroxypyrrolidin-1-yl)methanone] | 2.8%
O=C(c1cnn2ccc(N3CCC[C@@H]3c3cc(F)ccc3F)nc12)N1CC[C@@H](O)C1 [Example 19, (5-((R)-2-(2,5-difluorophenyl)pyrrolidin-1-yl)pyrazolo[1,5-a]pyrimidin-3-yl)((R)-3-hydroxypyrrolidin-1-yl)methanone] | 3.4%
NC(=O)c1cnn2ccc(N3CCC[C@@H]3c3cc(F)cc(OCCN4CCOCC4)c3)nc12 [Example 76, (R)-5-(2-(3-fluoro-5-(2-morpholinoethoxy)phenyl)pyrrolidin-1-yl)pyrazolo[1,5-a]pyrimidine-3-carboxamide] | 4.8%
CC(C)(C)NC(=O)c1cnn2ccc(N3CCC[C@@H]3c3cncc(F)c3)nc12 [Example 53, (R)—N-tert-butyl-5-(2-(5-fluoropyridin-3-yl)pyrrolidin-1-yl)pyrazolo[1,5-a]pyrimidine-3-carboxamide] | 8.7%
CC(C)(N)CNC(=O)c1cnn2ccc(N3CCC[C@@H]3c3cc(F)ccc3F)nc12 [Example 58, (R)—N-(2-amino-2-methylpropyl)-5-(2-(2,5-difluorophenyl)pyrrolidin-1-yl)pyrazolo[1,5-a]pyrimidine-3-carboxamide] | 4.7%
O=C(N[C@H]1CC[C@H](O)CC1)c1cnn2ccc(N3CCC[C@@H]3c3cccc(F)c3)nc12 [Example 35, 5-((R)-2-(3-fluorophenyl)pyrrolidin-1-yl)-N-((trans)-4-hydroxycyclohexyl)pyrazolo[1,5-a]pyrimidine-3-carboxamide] | 77.4%

Further lines, results first:

inhibition at 1 µM | Structure (SMILES)
33.3% | COc1ncc(F)cc1[C@H]1CCCN1c1ccn2ncc(C(=O)NCCO)c2n1 [Example 155, (R)-5-(2-(5-fluoro-2-methoxypyridin-3-yl)pyrrolidin-1-yl)-N-(2-hydroxyethyl)pyrazolo[1,5-a]pyrimidine-3-carboxamide]
35.6% | COc1ncc(F)cc1[C@H]1CCCN1c1ccn2ncc(C(=O)NCCCCO)c2n1 [Example 151, (R)-5-(2-(5-fluoro-2-methoxypyridin-3-yl)pyrrolidin-1-yl)-N-(4-hydroxybutyl)pyrazolo[1,5-a]pyrimidine-3-carboxamide]
4.7% | C[C@@H](CO)NC(=O)c1cnn2ccc(N3CCC[C@@H]3c3cncc(F)c3)nc12 [Example 116, 5-((R)-2-(5-fluoropyridin-3-yl)pyrrolidin-1-yl)-N-((S)-1-hydroxypropan-2-yl)pyrazolo[1,5-a]pyrimidine-3-carboxamide]
-0.9% | NCCCNC(=O)c1cnn2ccc(N3CCC[C@@H]3c3cc(F)c[nH]c3=O)nc12 [Example 142, (R)—N-(3-aminopropyl)-5-(2-(5-fluoro-2-oxo-1,2-dihydropyridin-3-yl)pyrrolidin-1-yl)pyrazolo[1,5-a]pyrimidine-3-carboxamide]
66.2% | COc1ncc(F)cc1[C@H]1CCCN1c1ccn2ncc(C(=O)NC3CCN(S(C)(=O)=O)CC3)c2n1 [Example 162, (R)-5-(2-(5-fluoro-2-methoxypyridin-3-yl)pyrrolidin-1-yl)-N-(1-(methylsulfonyl)piperidin-4-yl)pyrazolo[1,5-a]pyrimidine-3-carboxamide]
26.6% | Cn1cc(F)cc([C@H]2CCCN2c2ccn3ncc(C(=O)Nc4cccnc4)c3n2)c1=O [Example 231, (R)-5-(2-(5-fluoro-1-methyl-2-oxo-1,2-dihydropyridin-3-yl)pyrrolidin-1-yl)-N-(pyridin-3-yl)pyrazolo[1,5-a]pyrimidine-3-carboxamide]
11.5% | CC(C)(C)NC(=O)c1cnn2ccc(N3CCC[C@@H]3c3cc(F)c[nH]c3=O)nc12 [Example 202, (R)—N-tert-butyl-5-(2-(5-fluoro-2-oxo-1,2-dihydropyridin-3-yl)pyrrolidin-1-yl)pyrazolo[1,5-a]pyrimidine-3-carboxamide]
6.4% | C[C@@H](O)[C@H](CO)NC(=O)c1cnn2ccc(N3CCC[C@@H]3c3cc(F)ccc3F)nc12 [Example 174, 5-((R)-2-(2,5-difluorophenyl)pyrrolidin-1-yl)-N-((2S,3R)-1,3-dihydroxybutan-2-yl)pyrazolo[1,5-a]pyrimidine-3-carboxamide]
3.8% | C[C@H](O)[C@H](CO)NC(=O)c1cnn2ccc(N3CCC[C@@H]3c3cc(F)ccc3F)nc12 [Example 175, 5-((R)-2-(2,5-difluorophenyl)pyrrolidin-1-yl)-N-((2S,3S)-1,3-dihydroxybutan-2-yl)pyrazolo[1,5-a]pyrimidine-3-carboxamide]
-1% | O=C(c1cnn2ccc(N3CCC[C@@H]3c3cncc(F)c3)nc12)N1CCC1 [Example 126, (R)-azetidin-1-yl(5-(2-(5-fluoropyridin-3-yl)pyrrolidin-1-yl)pyrazolo[1,5-a]pyrimidin-3-yl)methanone]
-0.8% | Cc1ncc(F)cc1[C@H]1CCCN1c1ccn2ncc(C(=O)NC(C)(C)C)c2n1 [Example 183, (R)-N-tert-butyl-5-(2-(5-fluoro-2-methylpyridin-3-yl)pyrrolidin-1-yl)pyrazolo[1,5-a]pyrimidine-3-carboxamide]
